These results are taken from paper PMC11724466, “PRMT5 inhibition has a potent anti-tumor activity against adenoid cystic carcinoma of salivary glands” (Journal of Experimental & Clinical Cancer Research : CR, 2025).

This test addresses T1, PRMT5 (protein arginine methyl transferase 5) (Homo sapiens, UniProt O14744).
T1 construct: human recombinant PRMT5/MEP50 complex; with MEP50
Put plainly: scintillation proximity radiometric methyltransferase assay (3H-SAM, histone H4 peptide); jump dilution. In kind it is biochemical. In general terms: In a scintillation proximity assay essentially only radioactivity close to the scintillant gives light.

T1 sequence (O14744 2-637): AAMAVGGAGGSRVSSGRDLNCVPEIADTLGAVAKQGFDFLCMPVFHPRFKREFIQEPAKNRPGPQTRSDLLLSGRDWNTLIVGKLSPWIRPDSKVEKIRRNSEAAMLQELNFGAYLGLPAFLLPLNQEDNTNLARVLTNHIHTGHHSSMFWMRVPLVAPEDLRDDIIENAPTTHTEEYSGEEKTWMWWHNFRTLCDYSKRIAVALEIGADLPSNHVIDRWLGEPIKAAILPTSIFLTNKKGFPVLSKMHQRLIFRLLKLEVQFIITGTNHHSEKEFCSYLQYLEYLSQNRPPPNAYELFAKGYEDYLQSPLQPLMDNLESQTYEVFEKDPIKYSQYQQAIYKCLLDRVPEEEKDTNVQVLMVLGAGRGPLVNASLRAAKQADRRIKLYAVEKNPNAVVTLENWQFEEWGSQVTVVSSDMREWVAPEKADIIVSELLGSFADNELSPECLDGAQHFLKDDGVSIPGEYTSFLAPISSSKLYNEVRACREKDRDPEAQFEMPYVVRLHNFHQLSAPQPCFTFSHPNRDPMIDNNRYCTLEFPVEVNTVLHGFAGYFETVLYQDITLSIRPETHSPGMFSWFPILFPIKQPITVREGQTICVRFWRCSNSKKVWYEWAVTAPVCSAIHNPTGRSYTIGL
T1 sequence (Q9BQA1 whole entry partner): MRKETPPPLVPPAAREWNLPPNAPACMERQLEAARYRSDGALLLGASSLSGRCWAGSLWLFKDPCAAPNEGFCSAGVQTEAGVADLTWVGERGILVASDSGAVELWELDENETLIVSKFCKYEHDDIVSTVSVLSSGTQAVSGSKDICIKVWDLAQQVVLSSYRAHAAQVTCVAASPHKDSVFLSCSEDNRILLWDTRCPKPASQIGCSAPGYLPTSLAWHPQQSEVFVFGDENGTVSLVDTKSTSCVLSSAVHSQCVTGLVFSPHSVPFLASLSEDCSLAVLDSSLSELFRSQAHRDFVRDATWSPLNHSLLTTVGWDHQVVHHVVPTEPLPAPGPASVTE

A word on the IC50: it is the point on the concentration scale where inhibition reaches its midpoint. A higher IC50 goes with a need for much substance. PRT543 showed an IC50 of 0.0108 µM.
